Calls of active or inactive are those of the source.
How the values were obtained:
[1] = system: Staphylococcus aureus; assay: Antibacterial activity against methicillin resistant Staphylococcus aureus 4591/A assessed as reduction in microbial growth incubated for 24 hrs by microdilution assay; assay type: functional
[2] = system: Pseudomonas aeruginosa; assay: Antibacterial activity against multidrug-resistant Pseudomonas aeruginosa assessed as reduction in microbial growth incubated for 24 hrs by microdilution assay; assay type: functional
[3] = system: Staphylococcus epidermidis; assay: Antibacterial activity against Staphylococcus epidermidis CCM 7221 assessed as inhibition of bacterial growth incubated for 24 hrs by microdilution assay; assay type: functional
[4] = system: Staphylococcus aureus; assay: Antibacterial activity against wild type Staphylococcus aureus 4883/C assessed as reduction in microbial growth incubated for 24 hrs by microdilution assay; assay type: functional
[5] = system: Staphylococcus aureus; assay: Antibacterial activity against wild type Staphylococcus aureus 4566/A assessed as reduction in microbial growth incubated for 24 hrs by microdilution assay; assay type: functional
[6] = system: Staphylococcus aureus; assay: Antibacterial activity against wild type Staphylococcus aureus 4515/A assessed as reduction in microbial growth incubated for 24 hrs by microdilution assay; assay type: functional
[7] = Toxicity in human cornea epidermis model assessed as eye irritation incubated for 42 hrs; assay type: tissue-based
[8] = system: Staphylococcus aureus; assay: Antibacterial activity against wild type Staphylococcus aureus 4561/A assessed as reduction in microbial growth incubated for 24 hrs by microdilution assay; assay type: functional
[9] = system: Staphylococcus aureus; assay: microbe, parasite or virus in culture; conditions: 4862/C, 24 h
Description: Antibacterial activity against wild type Staphylococcus aureus 4862/C assessed as reduction in microbial growth incubated for 24 hrs by microdilution assay

[10] = system: Staphylococcus aureus; assay: Antibacterial activity against wild type Staphylococcus aureus 5079/C assessed as reduction in microbial growth incubated for 24 hrs by microdilution assay; assay type: functional
[11] = system: Staphylococcus aureus; assay: Antibacterial activity against Staphylococcus aureus CCM 4223 persisters assessed as reduction in bacterial cell count at 1 to 10 times MIC incubated for 3 hrs by cell counting method; assay type: functional, organism-based
[12] = system: Staphylococcus aureus; assay: Antibacterial activity against […] Staphylococcus aureus 4463/A assessed as reduction in microbial growth incubated for 24 hrs by microdilution assay; assay type: functional
[13] = system: Staphylococcus aureus; assay: Antibacterial activity against wild type Staphylococcus aureus 4788/B assessed as reduction in microbial growth incubated for 24 hrs by microdilution assay; assay type: functional
[14] = system: Escherichia coli; assay: Antibacterial activity against Escherichia coli ATCC 25922 = CCM 3954 assessed as inhibition of bacterial growth incubated for 24 hrs by microdilution assay; assay type: functional
[15] = system: Staphylococcus aureus; assay: Antibacterial activity against wild type Staphylococcus aureus 4504/A assessed as reduction in microbial growth incubated for 24 hrs by microdilution assay; assay type: functional
[16] = system: Escherichia coli; assay: Antibacterial activity against Escherichia coli CCM 3954 assessed as time to reduce microbial population at 2 mg/L measured by time-kill assay; assay type: functional
[17] = system: Staphylococcus aureus; assay: Antibacterial activity against wild type Staphylococcus aureus 4717/B assessed as reduction in microbial growth incubated for 24 hrs by microdilution assay; assay type: functional
[18] = system: Staphylococcus aureus; assay: Antibacterial activity against wild type Staphylococcus aureus 77/CF assessed as reduction in microbial growth incubated for 24 hrs by microdilution assay; assay type: functional
[19] = system: Staphylococcus aureus; assay: Antibacterial activity against wild type Staphylococcus aureus 4968/C assessed as reduction in microbial growth incubated for 24 hrs by microdilution assay; assay type: functional
[20] = system: Staphylococcus aureus; assay: Antibacterial activity against wild type Staphylococcus aureus 4502/A assessed as reduction in microbial growth incubated for 24 hrs by microdilution assay; assay type: functional
[21] = system: Escherichia coli; assay: Antibacterial activity against Escherichia coli CCM 3954 persisters assessed as reduction in bacterial cell count at 1 to 10 times MICincubated for 3 hrs by cell counting method; assay type: functional, organism-based
[22] = system: Staphylococcus aureus; assay: Antibacterial activity against wild type Staphylococcus aureus 4557/A assessed as reduction in microbial growth incubated for 24 hrs by microdilution assay; assay type: functional
[23] = system: Staphylococcus aureus; assay: Antibacterial activity against Staphylococcus aureus ATCC 29213 = CCM 4223 assessed as inhibition of bacterial growth incubated for 24 hrs by microdilution assay; assay type: functional
[24] = system: Cell membrane; assay: Induction of cell envelope damage in Staphylococcus aureus assessed as loss of cytoplasmic content at 8 mg/L measured after 8 hrs by scanning electron microscope analysis; assay type: subcellular
[25] = system: Staphylococcus aureus; assay: Antibacterial activity against wild type Staphylococcus aureus 4738/B assessed as reduction in microbial growth incubated for 24 hrs by microdilution assay; assay type: functional
[26] = system: Staphylococcus aureus; assay: Antibacterial activity against wild type Staphylococcus aureus 78/CF assessed as reduction in microbial growth incubated for 24 hrs by microdilution assay; assay type: functional
[27] = system: Escherichia coli; assay: Bactericidal activity against Escherichia coli CCM 3954 assessed as reduction in viable cell count measured after 24 hrs by Time kill assay; assay type: functional, organism-based; conditions: dose 2-8 mg/L, DDE = dose-dependent effect
[28] = system: Escherichia coli; assay: Antibacterial activity against multidrug-resistant Escherichia coli CE5556 expressing CTX-M-15 assessed as reduction in microbial growth incubated for 24 hrs by microdilution assay; assay type: functional
[29] = system: Staphylococcus aureus; assay: Antibacterial activity against Staphylococcus aureus ATCC 29213 = CCM 4223 assessed as inhibition of bacterial growth incubated for 24 hrs in presence of BSA by microdilution assay; assay type: functional
[30] = system: Staphylococcus aureus; assay: Bactericidal activity against Staphylococcus aureus CCM 4223 assessed as reduction in viable cell count measured after 24 hrs by Time kill assay; assay type: functional, organism-based; conditions: DDE = dose-dependent effect
[31] = system: Cell membrane; assay: Induction of cell envelope damage in Staphylococcus aureus assessed as membranous nanotubes extrude from dying/dead cells at 8 mg/L measured after 8 hrs by scanning electron microscope analysis
[32] = system: Staphylococcus aureus; assay: Antibacterial activity against wild type Staphylococcus aureus 4482/A assessed as reduction in microbial growth incubated for 24 hrs by microdilution assay; assay type: functional
[33] = system: Cell membrane; assay: Induction of cell envelope damage in Staphylococcus aureus assessed as loss of cell integrity at 8 mg/L measured after 8 hrs by scanning electron microscope analysis; assay type: subcellular
[34] = Gradient chromatographic hydrophobicity index of the compound at pH 3.7 by HPLC analysis; assay type: ADME
[35] = system: Staphylococcus aureus; assay: Antibacterial activity against wild type Staphylococcus aureus 4679/B assessed as reduction in microbial growth incubated for 24 hrs by microdilution assay; assay type: functional
[36] = system: Cell membrane; assay: Induction of plasma membrane depolarization in Escherichia coli CCM 3954 assessed as increase in fluorescence intensity at 2.5 mg/L measured after 80 seconds by DiSC3-5 dye based spectrofluorometer method; assay type: cell membranes; conditions: time 80.0 sec
[37] = system: Lipid bilayer; assay: Induction of membrane disruption of bacterial inner membrane mimic DOPE/DOPG (2:1) large unilamellar vesicles assessed as carboxyfluorescein leakage at 2.5 mg/L measured after 90 mins by spectrofluorometer analysis
[38] = system: Enterococcus faecium; assay: Antibacterial activity against vancomycin resistant Enterococcus faecium 419/ANA assessed as reduction in microbial growth incubated for 24 hrs by microdilution assay; assay type: functional
[39] = system: Staphylococcus aureus; assay: microbe, parasite or virus in culture; conditions: 5017/C, 24 h
Description: Antibacterial activity against wild type Staphylococcus aureus 5017/C assessed as reduction in microbial growth incubated for 24 hrs by microdilution assay

[40] = system: Cell membrane; assay: Induction of cell envelope damage in Staphylococcus aureus assessed as tubular structure at 8 mg/L measured after 8 hrs by scanning electron microscope analysis
[41] = system: Enterococcus faecalis; assay: Antibacterial activity against Enterococcus faecalis ATCC 29212 = CCM 4224 assessed as inhibition of bacterial growth incubated for 24 hrs by microdilution assay; assay type: functional
[42] = system: Pseudomonas aeruginosa; assay: Antibacterial activity against Pseudomonas aeruginosa CCM 3955 persisters assessed as reduction in bacterial cell count at 1 to 10 times MIC incubated for 3 hrs by cell counting method; assay type: functional, organism-based
[43] = system: Cell membrane; assay: Induction of membrane permeabilization in Escherichia coli CCM 3954 assessed as propidium iodide influx measured after 80 mins by spectrofluorometer method; conditions: dose 2.5-5 mg/L, DDE = dose-dependent effect

CCCCCCCCOP(=O)(CCN(CCCN)CCCN)OCCCCCCOP(=O)(CCN(CCCN)CCCN)OCCCCCCCC.Cl.Cl.Cl.Cl.Cl.Cl (stereo not drawn)
Non-Toxic: Activity [7]
1 µg/mL: MIC [1] | MIC [4] | MIC [6] | MIC [12] | MIC [19] | MIC [20] | MIC [26] | MIC [28] | MIC [29] | MIC [41]
0.5 µg/mL: MIC [3] | MIC [5] | MIC [8] | MIC [9] | MIC [10] | MIC [13] | MIC [14] | MIC [15] | MIC [17] | MIC [18] | MIC [22] | MIC [23] | MIC [25] | MIC [32] | MIC [35] | MIC [39]
active: Activity [11] | Activity [21] | Activity [24] | Activity [27] Dde | Activity [30] Dde | Activity [31] | Activity [33] | Activity [36] | Activity [37] | Activity [40] | Activity [42] | Activity [43] Dde
36.9: CHI [34]
2 µg/mL: MIC [2]
8 µg/mL: MIC [38]
12 h: Time [16]
